Results published in a melting point compilation (Tetko et al.; mined from patent text by program, amines drawn as free bases though some values may be those of a salt).

Row | SMILES | melting point
1 | CCOC(=O)/C=C(C)/C=C/C1=C(c2ccc3c(c2)C(C)(C)CCC3(C)C)CCC1 | 83 to 86 °C
2 | O=Cc1csc(N2CCOCC2)n1 | 107 to 108 °C
3 | CCOC(=O)c1c(O)ncnc1CC | 84.5 to 86 °C
4 | OC(CCN1CCC(c2ccc(F)cc2)CC1)c1ccc(Cl)cc1 (stereo not given) | 108 to 110 °C
5 | O=S(=O)(Cl)c1ccc(CCc2ccccc2)cc1 | 90 to 95 °C
6 | CN(C)CC1CCc2cc(OCc3ccc(NC(=O)c4ccccc4)cc3)ccc2C1 (stereo not given) | 128 to 133 °C
7 | CCOCCc1nnc(S)n1N | 123 to 124 °C
8 | CCOC(=O)C1=Cc2c3c(c(C(=O)OCC)cc2=N1)=Nc1cnccc1-3 | 198 to 201 °C
9 | CCCCCCCCCCCCCCSCc1ccc(C(C)=O)o1 | 55 to 57 °C
10 | CN(C)C1Cc2cccc3[nH]c(=O)n(c23)C1 (stereo not given) | 220 to 223 °C
11 | CCCCCCCCCCCCCCCCC#CCBr | 34 to 35 °C
12 | CCN(CC)S(=O)(=O)c1ccc(Oc2ccc(S(=O)(=O)C(F)(F)F)cc2)cc1 | 83 to 84 °C
13 | CCN(CC)C(=O)CCC(=O)Nc1ccc(C(=O)N2CCCCc3ccccc32)cc1 | 165 to 167 °C
14 | CC(C)(C)C(=O)SC[C@H](NC(=O)C(C)(C)S)C(=O)O | 115 to 117 °C
15 | CCOc1ccc(CC(=O)O)cc1OCCCc1cn(-c2ccc(C(F)(F)F)cn2)nc1C(C)C | 116 to 117 °C
16 | CCCc1c(OCC(O)COc2cc(NC(=O)c3nnn[nH]3)c(C)cc2Br)ccc(C(C)=O)c1O (stereo not given) | 155 to 158 °C
17 | O=C1c2ccccc2-c2ccc(-c3nc(COc4ccc(CCCn5ccnc5)cc4)co3)cc21 | 153 to 154 °C
18 | CN1CC(CO)C=C2c3cccc4c3c(cn4C(C)(C)C)CC21 (stereo not given) | 181 to 183 °C
19 | O=S(=O)(NCCO)c1ccc(-c2ccc(S(=O)(=O)NCCO)cc2)cc1 | 203 to 206 °C
20 | CCCCC1NC(C(=O)O)CS1 (mixture of isomers) | 195 °C
21 | COc1ccc(Nc2ccc(Nc3ncnc4cc(-c5ccc(OC)nc5)sc34)cc2)cc1 | 149 to 159 °C

Row | SMILES | melting point
22 | OCCNCCCCCCNCCO | 75 to 79 °C
23 | CC(C)Cn1nc(-c2ccc(O)cc2O)c2cccc(C(F)(F)F)c21 | 91 to 92 °C
24 | COc1cc(C(=O)N2Cc3ccc(C(=O)N(C)CC(O)CO)n3Cc3ccccc32)ccc1-c1ccccc1C(F)(F)F (stereo not given) | 119 to 123 °C
25 | O=C(NCCn1ccnc1)c1sc2ccccc2c1Cl | 132 to 134 °C
26 | Cc1cccc(-n2c(-c3cc(-c4ccc(Cl)cc4)c(N4CCOCC4)s3)nc3ccccc3c2=O)c1 | 228 to 230 °C
27 | O=c1c(-c2cccc(F)c2)c(CNc2ncnc3[nH]cnc23)oc2ccc(F)cc12 | 229 to 232 °C
28 | CCN(CC)c1ccc(-c2cc(-c3ccc(C(=O)O)cc3)ccc2OCCCCO)cc1C(C)(C)C | 165 °C
29 | O=c1[nH]c2ccccc2n1Cc1ccc(OC(F)(F)F)cc1 | 145 to 148 °C
30 | O=C(Nc1c[nH]nc1C(=O)Nc1cccc(C(F)(F)F)c1)c1ccccn1 | 236 to 237 °C
31 | Cc1cc(=O)c(C(=O)NS(C)(=O)=O)nn1-c1ccc(Cl)cc1 | 225 to 227 °C
32 | CN(N)c1ncnc2c1cnn2C | 213 to 215 °C
33 | CC(C)N1CCN(CCN2CCN(c3cn(-c4ccc(F)cc4)c4cc(Cl)ccc34)CC2)C1=O | 176 to 177 °C
34 | CC1=NN(CCN2CCOCC2)S(=O)(=O)c2sc(S(N)(=O)=O)cc21 | 160 to 162 °C
35 | Cc1ccc(NC(=O)c2ccc(CN3CC[N+](C)([O-])CC3)cc2)cc1Nc1nccc(-c2cccnc2)n1 | 154 to 158 °C
36 | O=[N+]([O-])c1ccc(CS(=O)(=O)CCO)c(CS(=O)(=O)CCO)c1 | 126 to 128 °C
37 | O=C(NC1(C(=O)O)CC1)OCCOC(=O)c1ccccc1 | 174 to 176 °C
38 | CC(=O)Nc1ccc(-c2c(Cl)c(CN3C(=O)CCC3=O)nc3sc4c(c23)CCNC4)cc1 | 300 °C
39 | CCCCCCCCCCCCCCc1ccc(C(=O)O)[nH]1 | 68 to 69 °C
40 | Nc1cc(=O)[nH]c(=O)n1Cc1ccncc1 | 163 to 168 °C
41 | O=C1CCC(N2C(=O)c3cccc(CNC(=O)Nc4ccc5c(c4)OCO5)c3C2=O)C(=O)N1 (stereo not given) | 216 to 218 °C
42 | CC(C)C(=O)Nc1ccc(S(=O)(=O)c2ccc(F)cc2)cc1 | 112 to 115 °C

Row | SMILES | melting point
43 | CC(C)(CO)NC(=S)NC(=O)c1ccccc1 | 116 to 118 °C
44 | CC(C)C(CN=C(O)C(Cl)=C(Cl)C(=O)O)c1ccc(Cl)cc1 (stereo not given) | 91 to 92 °C
45 | CNC(=S)NCCCCCCc1csc(NC(=N)N)n1 | 162 to 164 °C
46 | CC(C)CCCC(C)C1CCC2C3CC=C4CC(Oc5ccc(N)cc5N)CCC4(C)C3CCC12C (stereo not given) | 159 to 163 °C
47 | CC(C)(C)OCCOc1cc(NC(=O)OC(C)(C)C)c(NC(=O)CC(=O)c2cccc(-n3ccnc3)c2)cc1-c1ccc(F)cc1 | 101 °C
48 | Cc1oc(-c2ccccc2)nc1COc1ccc(Cn2cc(CC(=O)O)c(-c3ccccc3)n2)cn1 | 144 to 145 °C
49 | CCOC(=O)C(CCC#N)(C(=O)OCC)c1ncc(Br)cc1[N+](=O)[O-] | 58 to 62 °C
50 | CCc1cc(O)n2nc(CC)c(C)c2n1 | 287 °C
51 | O=C(O)C(Cl)=C(Cl)C(O)=NCCc1ccc(F)cc1 | 137 to 138 °C
52 | O=C1Cc2cc(C(=O)N3CCN(Cc4ccccc4)CC3)ccc2N1 | 151 to 153 °C
53 | NC(=O)Nc1ccc2c(c1)N1CCN=C1S2 | 300 °C
54 | COC(=O)C(C)(C)CCCOc1cc(C)c([N+](=O)[O-])cc1C | 73 to 75 °C
55 | CCCCCCCCc1ccc(OCC(=O)Cn2cccn2)cc1 | 85 to 87 °C
56 | O=C1N(Cc2ccc(Cl)s2)c2ccccc2C12COc1cc3c(cc12)OCO3 (stereo not given) | 145 to 146 °C
57 | Nc1ccc(S(=O)(=O)NC(=S)NC23CC4CC(CC(C4)C2)C3)cc1 | 176 to 179 °C
58 | O=c1nc(-c2ccccc2)cnn1-c1cc(Cl)cc(Cl)c1 | 160 to 161 °C
59 | Cc1[nH]c(C(=O)N2CCC(C(=O)N(C)CCN(C)C)CC2)c(C)c1-c1nc2ccc(C(=O)c3ccccc3)cc2[nH]1 | 264 to 266 °C
60 | CC(C)(C)OC(=O)C1CCCN(CO)c2c1cc(OCc1ccccc1)c1ccccc21 (stereo not given) | 108 to 110 °C
61 | CCOP(=O)(/C=C/c1cn(-c2ccccc2)nc1OCc1ccc(OCc2nc(-c3cccc(O)c3)oc2C)c(OC)c1)OCC | 127 to 128 °C
62 | CC1C(=O)NCCN1C(=O)C(Cl)Cl (stereo not given) | 167 to 168 °C

More lines, now with the values ahead:

Row | melting point | SMILES
63 | 85.5 to 86.5 °C | O=C1OCN(C(=O)OCc2ccccc2)[C@H]1Cc1ccccc1
64 | 95.5 to 96 °C | COC(=O)c1ccc(CCCCO)cc1
65 | 138 to 139 °C | COc1ccc(Cl)cc1C(=O)NCCC1CCN(S(=O)(=O)NC(=O)NC2CC2)CC1
66 | 231 °C | COc1cc(C(=O)c2nc(NS(C)(=O)=O)c3ccccn23)ccc1[N+](=O)[O-]
67 | 41 to 52 °C | Cc1cc(C)c(C(=O)c2ccc(Cl)cc2)c(Cl)c1
68 | 180 °C | N#Cc1cc(C(=O)O)ccc1Cl
69 | 170 to 171 °C | CCC1(CO)CS(=O)(=O)c2ccccc2C(c2ccccc2)=N1 (stereo not given)
70 | 222 to 223 °C | CC(C)(C)OC(=O)c1nc(-c2ccccc2)[nH]c1C1CCCCC1
71 | 167 to 169 °C | NC(=NO)c1ccc(-c2ccc(Cl)cc2)o1
72 | 183 to 184 °C | CSc1nc(-c2ccc(Cl)cc2)c(CCC(=O)O)o1
73 | 163 to 165 °C | O=c1c(CCl)coc2c1COc1ccccc1-2
74 | 105 to 106 °C | COc1cccc2c1OCC(C#N)=C2
75 | 130 to 132 °C | O=C(CO)c1ccc(-c2ccccc2)cc1
76 | 108 °C | CC(O)CNCC(O)COc1ccccc1C#N (stereo not given)
77 | 152 to 154 °C | CCOC(=O)C1(Nc2nc(-c3ccc(Br)cc3)cs2)CC1
78 | 98.5 to 104 °C | CCCc1ccc(NC=C(C(=O)OCC)C(=O)c2ccccc2Cl)cc1
79 | 163 to 165 °C | CC(C)(C)C1CCc2c(c3ccccc3n2CC[N+]2([O-])CCCC2)C1 (stereo not given)
80 | 103 to 104 °C | COc1ccc(CN2C(=O)CCC2C(=O)O)cc1 (stereo not given)
81 | 109 to 111 °C | O=C(Cc1cccc(Cl)c1F)c1ccc(F)c(Cl)c1
82 | 73 to 75 °C | COc1ccc(C(=O)c2ccc(C)cc2)cc1C
83 | 159 to 161 °C | CCOc1cccc2c1OC(C(F)(F)F)C(C(=O)O)=C2 (stereo not given)
84 | 108 to 109 °C | CCOC(=O)[C@H](Cc1ccc(OC)c(OC)c1)NC(=O)c1ccnc(Br)c1

Row | melting point | SMILES
85 | 181 to 182 °C | COc1ccc2c(C)c3n(c2c1)CCCC3NC=O (stereo not given)
86 | 184 to 186 °C | CNC(=O)C(C#N)C(=O)Nc1ccc(C(F)(F)F)cc1 (stereo not given)
87 | 183 to 185 °C | O=C(NCCN1CCN(c2cccc3c2OCC(CO)O3)CC1)c1ccc(F)cc1 (stereo not given)
88 | 120 to 122 °C | CCOc1cc2c(cc1OC)C(=O)CC(C)(C)O2
89 | 184 to 187 °C | CC(O)=C(C#N)C(=O)Nc1cccc(Cl)c1
90 | 112 °C | CNc1cc(-c2ccc(Cl)cc2)nn1C
91 | 90 °C | CCOC(=O)N(C)CCCC1=CC2(CCCC2)c2ccccc21
92 | 250 to 251 °C | N#CC(=NOS(=O)(=O)c1ccc(C(=O)O)cc1)c1ccccc1
93 | 108 to 110 °C | C=CCOC(=O)N[C@H]1CC(=O)O[C@H]1OCc1ccccc1
94 | 142 to 144 °C | COC(=O)Nc1ccc(OCc2nc3ccccc3s2)cc1
95 | 170 to 172 °C | O=c1cc(N2CCOCC2)oc2cc(OCc3ccccc3)ccc12
96 | 49 °C | CCC1CC(=O)N(Cc2ccc(N)cc2)N=C1c1ccc(OC)c(OC)c1 (stereo not given)
97 | 130 to 135 °C | COC(=O)c1ccc(S(C)(=O)=O)c(C2=NOC(C)C2)c1Cl (stereo not given)
98 | 208 to 210 °C | O=C(O)c1cnc2cc([N+](=O)[O-])ccc2n1
99 | 118 to 119 °C | CCCCc1nc2c(N)nc3ccccc3c2n1OC(C)C
100 | 131 to 139 °C | CC(=O)Nc1cccc(Nc2ncc3ccc(-c4cccn4CCC#N)n3n2)c1
101 | 161 to 162 °C | Cc1cc2c(cc1C)SC(CCCN1CCN(c3ccc(F)cc3)CC1)C(=O)N2 (stereo not given)
102 | 114 to 115 °C | COC(=O)C=Cc1ccc(Cl)c(Cl)c1
103 | > 300 °C | CC1CC(=O)Nc2nc(C#N)c3ncccc3c21 (stereo not given)
104 | 45 to 46 °C | COC(=O)Nc1ccccc1
105 | 153 to 155 °C | CCOc1cc2ncc(C#N)c(N(C)c3ccccc3)c2cc1OCC
